Experimental data reported in PubChem BioAssay AID1645865 (Buhrlage Lab, Dana-Farber Cancer Institute and Novartis …, 2021).
Activity calls are given as the source filed them.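 How the source made its calls: active means maximal inhibition of the USP30 enzyme reaching 30% or more across the dose series; inactive means the rest.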

These molecules were tested against Ubiquitin carboxyl-terminal hydrolase 30 (Homo sapiens) (UniProt Q70CQ3) (assay: ubiquitin-specific protease 30 DUB inhibitors, concentration-effect, biochemical, validation of primary actives (AID 1645865)). Conditions: purified USP30, Ub-rhodamine cleavage, fluorescence, 2 h.
Ubiquitin carboxyl-terminal hydrolase 30 (Homo sapiens), sequence (Q70CQ3 whole entry, looked up): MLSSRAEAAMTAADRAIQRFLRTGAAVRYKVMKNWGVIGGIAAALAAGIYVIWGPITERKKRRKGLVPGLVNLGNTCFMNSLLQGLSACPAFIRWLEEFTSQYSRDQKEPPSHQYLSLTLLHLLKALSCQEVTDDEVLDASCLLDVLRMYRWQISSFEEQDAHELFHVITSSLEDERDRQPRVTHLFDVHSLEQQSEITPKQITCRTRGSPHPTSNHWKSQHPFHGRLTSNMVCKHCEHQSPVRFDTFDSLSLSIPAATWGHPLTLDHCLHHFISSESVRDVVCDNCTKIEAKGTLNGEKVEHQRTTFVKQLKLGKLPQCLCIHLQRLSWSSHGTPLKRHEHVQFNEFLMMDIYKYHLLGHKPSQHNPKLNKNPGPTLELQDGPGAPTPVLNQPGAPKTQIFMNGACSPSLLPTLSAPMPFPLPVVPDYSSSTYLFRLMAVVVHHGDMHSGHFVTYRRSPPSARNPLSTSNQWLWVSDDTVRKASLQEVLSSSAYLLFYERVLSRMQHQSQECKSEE
With `CC[C@H](C)C[C@H]1CC[C@](O)([C@](C)(O)C(=O)N[C@@H]2C(=O)N3NCCC[C@@H]3C(=O)N(O)[C@@H](C)C(=O)NCC(=O)N3NCCC[C@H]3C(=O)N(O)[C@H](C)C(=O)O[C@H]2C(C)C)O[C@@H]1C` the IC50 was 2.09 µM.
With `Nc1ccccc1SCc1noc(-c2cccs2)n1` the IC50 was > 50 µM (inactive).
For `COc1ccc(C(=O)Nc2ccccc2C(=O)NCc2ccccc2)cc1`, the IC50 was 30.4 µM.
In the case of `O=C1/C(=C/c2cn(-c3ccccc3)nc2-c2ccc3c(c2)OCCO3)Cc2ccccc21`, the IC50 is reported as > 50 µM (inactive).
With `COCCNC(=O)c1cc(-c2cn(-c3ccccn3)c(C)n2)n2ccccc12` the IC50 was > 50 µM (inactive).
For `Cn1c(-c2nnc(SCC(=O)Nc3ccccc3F)o2)cc2ccccc21`, the IC50 was 14 µM.
In the case of `Cc1nc2nc(SCc3nc4ccccc4n3C)[nH]c2cc1Br`, the IC50 is reported as 4.82 µM.
`O=C(Cc1ccc(Cl)c(Cl)c1)OCC(=O)c1c[nH]c2ccccc12` was tested, and the IC50 was > 50 µM (inactive).
`COc1ccc(-c2cnnn2-c2ccc(NC(=O)c3c(F)cccc3F)cc2)cc1OC` was tested, and the IC50 was > 50 µM (inactive).
For `O=C(NC1CCCC1)C1CC(=O)N(c2cccc(-c3noc(-c4cccs4)n3)c2)C1` (stereo not drawn), the IC50 was > 50 µM (inactive).
With `Cc1oc(C2CC2)cc1C(=O)N1CCC2(CC1)CC1(CO2)Nc2ccccc2-n2cccc21` (stereo not drawn) the IC50 was > 50 µM (inactive).
In the case of `Cc1cc(-c2cnc(N(C)C)nc2-c2ccc(CNC(=O)Cc3ccc(F)cc3)cc2)on1`, the IC50 is reported as > 50 µM (inactive).
`Cc1ccc(C(=O)N2CCCC3(C2)Nc2cccnc2NC3=NC2CCCC2)s1` (stereo not drawn) was tested, and the IC50 was > 50 µM (inactive).
With `CCC1=C(c2ccc(C)cc2)S(=O)(=O)NC1=NCC(=O)NCc1ccccc1F` the IC50 was > 50 µM (inactive).
`CCn1c(SCc2nc(N)c3ccccc3n2)nc2ccccc21` was tested, and the IC50 was > 50 µM (inactive).
`Clc1ccccc1CSc1nnc(C2CCCCC2)n1Cc1ccccc1` was tested, and the IC50 was 21.5 µM.
With `CN(C)Cc1ccc(C(=O)Nc2ccc(-c3nccs3)cc2)cc1` the IC50 was > 50 µM (inactive).
For `Cc1ccccc1OCCC(=O)Nc1cccc(S(=O)(=O)Nc2ccccc2Cl)c1`, the IC50 was > 50 µM (inactive).
`O=C(CCn1c(=O)c2sccc2n(CC(=O)OCc2ccccc2)c1=O)NCc1ccc2c(c1)OCO2` gave an IC50 of 22.9 µM.
In the case of `Cc1ccccc1NC(=O)c1ccn(COc2ccc(Cl)cc2)n1`, the IC50 is reported as > 50 µM (inactive).
For `Cc1noc(C)c1S(=O)(=O)Nc1ccc(C(=O)Nc2ccc3c(c2)OCCO3)cc1`, the IC50 was > 50 µM (inactive).
`CN(Cc1ccccc1)S(=O)(=O)c1ccc(S(=O)(=O)N2CCN(C(=O)c3cccnc3)CC2)cc1` gave an IC50 of 15.8 µM.
With `O=c1sc2ccccc2c(=O)n1Cc1cccc(C(F)(F)F)c1` the IC50 was > 50 µM (inactive).
For `O=C(c1cc(-c2ccncc2)n[nH]1)N1CCC(C(=O)N2CC=C(c3ccccc3)CC2)CC1`, the IC50 was 33.2 µM.
For `O=C(/C=C/c1ccc2c(c1)OCO2)Nc1nc2c(s1)COCC2`, the IC50 was 25.8 µM.
Molecule `COc1ccc(-c2cc(C(=O)NC3CCCCCC3)[nH]n2)cc1S(=O)(=O)N(C)C` has an IC50 of 22.9 µM.
`O=C(CN1C(=O)c2ccccc2Sc2ccc(C(=O)N3CCCC3)cc21)Nc1ccccc1Cl` was tested, and the IC50 was > 50 µM (inactive).
For `Cc1ccc(NC(=O)c2ccc3nn(CC(=O)Nc4ccc(F)cc4F)c(=O)n3c2)cc1`, the IC50 was 2.43 µM.
In the case of `CCOc1ccc(CCNC(=O)CCC(=O)Nc2ccc3nc(N4CCN(C)CC4)cc(C)c3c2)cc1OCC`, the IC50 is reported as > 50 µM (inactive).
`O=C(CN1CCCCC1)Nc1nnc(-c2ccc([N+](=O)[O-])cc2)s1` was tested, and the IC50 was 22.5 µM.
For `COc1cc2c(c3oc4cccc(O)c4c(=O)c13)C1C=COC1O2` (stereo not drawn), the IC50 was > 50 µM (inactive).
In the case of `Cc1ccc(Nc2nc(C(=O)NCc3ccc4c(c3)OCO4)cc3occc23)cc1Cl`, the IC50 is reported as > 50 µM (inactive).
`COc1ccc(-c2nnc(SCc3ccccc3C#N)o2)c(OC)c1` showed an IC50 of 49.7 µM.
With `COC(=O)C1C(c2ccc(OC)cc2)C2(C(=O)c3ccccc3C2=O)C2C=Cc3ccccc3N12` (stereo not drawn) the IC50 was > 50 µM (inactive).
`COc1ccc(-c2cc(C(=O)N3CCN(c4ccc([N+](=O)[O-])cc4)CC3)[nH]n2)cc1` was tested, and the IC50 was > 50 µM (inactive).
Work on `COc1ccccc1NC(=O)Cn1cc(C(=O)c2ccc(C)cc2)c(=O)c2cc(Cl)ccc21` yielded an IC50 of 3.86 µM.
Work on `COCCNC(=O)Cn1c(=O)n(Cc2ccccc2)c(=O)c2c3c(sc21)CCC3` yielded an IC50 of 31.7 µM.
With `COc1ccc(C(=O)Nc2ccc3c(c2)C(=O)N(C)c2ccccc2O3)cc1` the IC50 was > 50 µM (inactive).
With `COCCn1c(=S)[nH]c2cc(C(=O)NCCSCc3ccccc3)ccc2c1=O` the IC50 was > 5 µM (inactive).
For `COc1cccc2c1NC(=O)C21CCN(C(=O)Nc2cccc3ccccc23)CC1`, the IC50 was > 50 µM (inactive).
For `O=C(Cn1cncc(C(=O)NC2CCCC2)c1=O)Nc1cccc(F)c1`, the IC50 was 19.3 µM.
For `Cc1cnc2nc3c(cc2c1)CN(S(=O)(=O)c1cc(F)ccc1C)CC3`, the IC50 was > 50 µM (inactive).
`Cc1nn(-c2ccc(F)cc2)cc1-c1noc(C(=O)NCc2ccccn2)n1` showed an IC50 of 27.7 µM.
Work on `O=C1CC(c2cc3c(cc2Br)OCO3)c2cc3c(cc2N1)OCCO3` (stereo not drawn) yielded an IC50 of 19.2 µM.
`CCc1ccc(Nc2cc(C(=O)NCCCOC(C)C)c3ccccc3n2)cc1` showed an IC50 of 8.88 µM.
`O=S(c1ccc2ccccc2c1)c1cnns1` (stereo not drawn) was tested, and the IC50 was > 50 µM (inactive).
For `COC(=O)c1ccc(Cn2cnc3ccc(Br)cc3c2=O)o1`, the IC50 was > 50 µM (inactive).
Molecule `Cc1ccc(Cn2cc(-c3noc(-c4ccc[nH]4)n3)nn2)cc1` has an IC50 of 23.8 µM.
In the case of `Cc1cc2nc(Oc3cccc(Cl)c3)c3ccccc3n2n1`, the IC50 is reported as 2.04 µM.
`CC1OC2CC(O)C1(O)C1=C2C(=O)c2c(O)c3c(c(O)c2C1=O)[C@H](C)O[C@H]1CC(=O)O[C@@H]31` (stereo partly drawn) was tested, and the IC50 was > 50 µM (inactive).
In the case of `O=C(c1ccc2occc2c1)N1CCC(S(=O)(=O)c2ccc(-c3ccco3)cc2)CC1`, the IC50 is reported as > 50 µM (inactive).
With `CN1c2ccccc2CN(CC(N)=O)CC1Cc1ccccc1` (stereo not drawn) the IC50 was > 50 µM (inactive).
For `Cc1nc(-c2ccc3c(c2)nnn3CCN2CCOCC2)no1`, the IC50 was > 50 µM (inactive).
Work on `CNc1nc2c(c(=O)n1Cc1ccccc1)CN(C(=O)c1ccc(CN)cc1)CC2` yielded an IC50 of 42.8 µM.
`COc1ccccc1-c1nc2c3c(ncn2n1)Oc1c(c(C)nn1-c1ccccc1)C3c1cccnc1` (stereo not drawn) showed an IC50 of 2.85 µM.
In the case of `COc1ccc(S(=O)(=O)N2CCC3(CC2)OC(=O)Nc2ccccc23)cc1`, the IC50 is reported as 37.1 µM.
Work on `O=C1CC(C(=O)Nc2ccc(F)cc2)n2nc(SCc3ccccc3)nc2N1` (stereo not drawn) yielded an IC50 of 26.8 µM.
With `COc1cccc2c1C(=O)c1ccc3c(c1C2=O)C(=O)CC(C)(O)C3` (stereo not drawn) the IC50 was > 50 µM (inactive).
For `O=c1c(S(=O)(=O)c2cc(F)cc(F)c2)c[nH]c2cc(Cl)ccc12`, the IC50 was 21 µM.
With `CC(C)(C)OC(=O)N1CCN(C(=O)Cn2c(=O)nc(-c3ccccc3)c3ccccc32)CC1` the IC50 was > 50 µM (inactive).
`CCOc1ccc(NC(=O)Cn2cc(C(=O)c3ccc(Cl)cc3)c(=O)c3cc(OC)ccc32)cc1` showed an IC50 of 0.975 µM.
For `O=[N+]([O-])c1ccc2c(c1)nc1n2CCN(Cc2ccco2)C1`, the IC50 was > 50 µM (inactive).
`Cc1ccc(-n2nnc(C(=O)NC3CCCCC3)c2N)cc1` was tested, and the IC50 was 21.4 µM.
`O=C(COc1ccc2oc3c(c2c1)CCCC3)Nc1ccccn1` gave an IC50 of 30.6 µM.
`CCOC(=O)C1C(c2ccc(Br)cc2)C2(C(=O)c3ccccc3C2=O)C2C=Cc3ccccc3N12` (stereo not drawn) was tested, and the IC50 was > 50 µM (inactive).
Molecule `COc1ccc(Cl)cc1NC(=O)Cn1c(=O)cc(C)c2c(C)nn(-c3ccccc3)c21` has an IC50 of 1.99 µM.
For `NC(=O)CCC(=O)N[C@H]1C[C@H]2CN(Cc3ccccc3)c3ccccc3CN2C1`, the IC50 was > 50 µM (inactive).
With `Fc1ccc(Nc2nc(Nc3cccc(F)c3)nc3nccnc23)cc1` the IC50 was > 50 µM (inactive).
In the case of `CNC(=O)c1cc2nc(N(C)C)n(-c3ccccc3)c2s1`, the IC50 is reported as > 50 µM (inactive).
Work on `Cc1nc2c3ccccc3nc(NCc3ccc4c(c3)OCO4)n2n1` yielded an IC50 of 32.9 µM.
For `O=C(NCc1ccc(Br)cc1)c1ccc(-c2cccnc2)nc1`, the IC50 was 30.3 µM.
With `COc1cnc(-c2ccccn2)nc1Sc1ccc(C)cc1` the IC50 was 25.7 µM.
With `CCn1cnc2c(-c3ccccc3)cn(CC(=O)NCc3ccc4c(c3)OCO4)c2c1=O` the IC50 was 5 µM.
`COCCNC(=O)c1ccc(-c2ccc(N3CCCCC3)nc2)cc1` showed an IC50 of 22.9 µM.
In the case of `O=C(CCC1CCCCC1)Nc1ccccc1C(=O)N1CCOCC1`, the IC50 is reported as > 50 µM (inactive).
For `Cc1nn(Cc2ccccc2)c2sc(C(=O)Nc3nc4ccccc4[nH]3)cc12`, the IC50 was 19.4 µM.
With `CC(C)N1C[C@@H]2C[C@H](NS(=O)(=O)c3cccc(C#N)c3)CN2Cc2ccccc21` the IC50 was > 50 µM (inactive).
For `O=C(Nc1oc2ccccc2c(=O)c1-c1ccc2c(c1)OCO2)C1CCCCC1`, the IC50 was 27.2 µM.
`CCc1ccc(-n2c(=O)c3ccccc3n(CC(=O)NCCC3=CCCCC3)c2=O)cc1` showed an IC50 of 6.68 µM.
With `CCOc1ccc(-n2c(C)cc(/C=C(\C#N)c3nc4ccccc4[nH]3)c2C)cc1` the IC50 was > 50 µM (inactive).
`COc1ccc(CCNC(=O)c2cc(C3CC3)nc3c2cnn3C(C)C)cc1` was tested, and the IC50 was > 50 µM (inactive).
Molecule `Cn1c(COc2ccccc2)nnc1SCC(=O)Nc1ccc(N2CCOCC2)cc1` has an IC50 of 20 µM.
`Cc1ccc(OCCn2c(=N)n(C(C)C)c3ccccc32)cc1` was tested, and the IC50 was 35.3 µM.
`COc1ccc(-c2cc3nc([C@H](C)NC(=O)Cc4ccccc4C)nn3cn2)cc1` was tested, and the IC50 was 1.9 µM.
In the case of `COc1ccc(-c2nc(SCC(=O)Nc3ccc(Cl)cc3F)n[nH]2)cc1`, the IC50 is reported as > 50 µM (inactive).
In the case of `Cc1nc2ccccc2nc1SCC(=O)Nc1ccc2c(c1)OCO2`, the IC50 is reported as 40.3 µM.
`Cc1cc(Cl)ccc1NC(=O)c1cc(-c2cccnc2)n[nH]1` was tested, and the IC50 was > 50 µM (inactive).
For `N#Cc1ccc(COC(=O)c2ccc3ccccc3n2)cc1`, the IC50 was > 50 µM (inactive).
Molecule `COc1ccc(CNC(=O)CSc2nc3nc(C)ccc3o2)cc1` has an IC50 of 19.7 µM.
With `CC(C)c1cc(NCc2ccccc2)n2nc(-c3cccnc3)nc2n1` the IC50 was 19.7 µM.
In the case of `Cc1ccc(-n2c(-c3ccccc3)cn3c4c(=O)[nH]c(=O)n(C)c4nc23)cc1Cl`, the IC50 is reported as 0.222 µM.
Molecule `COc1ccc(C)cc1NC(=O)CSc1nc(C)nc2c1oc1ccccc12` has an IC50 of 17.9 µM.
In the case of `O=C(CSc1ccc2nnc(-c3ccccc3)n2n1)N1CCCc2ccccc21`, the IC50 is reported as 10.7 µM.
Molecule `O=C(Nc1cccc(F)c1)C1CCCN(S(=O)(=O)N2CCCCCC2)C1` (stereo not drawn) has an IC50 of 36.4 µM.
With `O=C(NCC1CC1)C1CCCN(c2ccc(-c3ccccc3)nn2)C1` (stereo not drawn) the IC50 was > 50 µM (inactive).
`Cc1ccccc1-c1nc(CN(C)S(=O)(=O)c2ccccc2)c(C)o1` showed an IC50 of 35.8 µM.
Work on `Cc1nc(N2CCCC2)ncc1C(=O)Nc1ccc(F)c(F)c1` yielded an IC50 of 31.1 µM.
With `Cn1c(=O)cc(SCC(=O)NC2CCN(Cc3ccccc3)CC2)c2ccc(Cl)cc21` the IC50 was 28.8 µM.
